Measurements from ChEMBL document CHEMBL4680144, “N-thiadiazole-4-hydroxy-2-quinolone-3-carboxamides bearing heteroaromatic rings as novel antibacterial agents: Design, synthesis, biological evaluation and target identification” (Eur J Med Chem, 2020).
≈ marks a conversion by molar mass, not a printed value. Calls of active or inactive are those of the source. No cut-off for these calls is given here.

Legend:
[1] = system: Staphylococcus epidermidis; experiment: Antibacterial activity against methicillin-sensitive Staphylococcus epidermidis clinical isolate 15-3 assessed as inhibition of bacterial growth incubated for 18 to 24 hrs by broth microdilution method; assay type: functional; conditions: time 18-24 hrs
Staphylococcus aureus [2] = experiment: In vivo antibacterial activity against methicillin resistant Staphylococcus aureus clinical isolate 15-1 infected in kunming mouse assessed as animal survival rate at 3 mg/kg, po administered 6 hrs prior to bacterial infection and at 0 and 6 hrs post infection and measured for 7 days (reference value: 12.5 %); assay type: functional; conditions: 15-1, po, 168 h, time 7 day
[3] = system: Staphylococcus epidermidis; experiment: Antibacterial activity against methicillin-resistant Staphylococcus epidermidis clinical isolate 15-1 assessed as inhibition of bacterial growth incubated for 18 to 24 hrs by broth microdilution method; assay type: functional; conditions: time 18-24 hrs
Enterococcus faecium [4] = experiment: Potency index, ratio of vancomycin MIC to test compound MIC for antibacterial activity against Enterococcus faecium clinical isolate 15-1 assessed as inhibition of bacterial growth incubated for 18 to 24 hrs by broth microdilution method; assay type: functional; conditions: time 18-24 hrs
Staphylococcus aureus [5] = experiment: Potency index, ratio of vancomycin MIC to test compound MIC for antibacterial activity against methicillin-resistant Staphylococcus aureus clinical isolate 15-6 assessed as inhibition of bacterial growth incubated for 18 to 24 hrs by broth microdilution method; assay type: functional; conditions: time 18-24 hrs
[6] = system: Staphylococcus epidermidis; experiment: Antibacterial activity against methicillin-resistant Staphylococcus epidermidis clinical isolate 15-3 assessed as inhibition of bacterial growth incubated for 18 to 24 hrs by broth microdilution method; assay type: functional; conditions: time 18-24 hrs
Staphylococcus aureus [7] = experiment: Bactericidal activity against methicillin-resistant Staphylococcus aureus clinical isolate 15-1 assessed as reduction in log10CFU at 4 times MIC measured over 24 hrs by time kill kinetics analysis; assay type: functional
[8] = Inhibition of Staphylococcus aureus Gyrase B using linear pBR322 DNA as substrate incubated for 30 mins in presence of ATP by ADP-Glo assay
Staphylococcus aureus [9] = experiment: Antibacterial activity against methicillin resistant and vancomycin-intermediate sensitive Staphylococcus aureus ATCC 700699 assessed as inhibition of bacterial growth incubated for 18 to 24 hrs by broth microdilution method; assay type: functional; conditions: time 18-24 hrs
[10] = MRTlast in Kunming mouse at 10 mg/kg, po measured upto 72 hrs by HPLC analysis; assay type: ADME, organism-based; conditions: in vivo
Staphylococcus aureus [11] = experiment: Antibacterial activity against methicillin-resistant Staphylococcus aureus clinical isolate 15-1 assessed as reduction in bacterial growth treated for 20 passages; assay type: functional; conditions: time 24 hrs
[12] = Metabolic stability in mouse plasma assessed as half life measured upto 120 mins by LC-MS/MS analysis; assay type: ADME, cell-free
[13] = Half life in Kunming mouse at 10 mg/kg, po measured upto 72 hrs by HPLC analysis; assay type: ADME, organism-based; conditions: in vivo
[14] = system: Staphylococcus epidermidis; experiment: Potency index, ratio of vancomycin MIC to test compound MIC for antibacterial activity against methicillin-sensitive Staphylococcus epidermidis clinical isolate 15-4 assessed as inhibition of bacterial growth incubated for 18 to 24 hrs by broth microdilution method; assay type: functional; conditions: time 18-24 hrs
[15] = AUClast in Kunming mouse at 10 mg/kg, po measured upto 72 hrs by HPLC analysis; assay type: ADME, organism-based; parameters: route oral, dose 10 mg/kg, time <=72; conditions: in vivo
HepG2 = experiment: Cytotoxicity against human HepG2 cells assessed as reduction in cell viability after 72 hrs by sulforhodamine B assay; assay type: cell-based; conditions: HepG2, 72 h
Staphylococcus aureus [16] = experiment: Antibacterial activity against methicillin resistant and vancomycin-intermediate sensitive Staphylococcus aureus ATCC 700788 assessed as inhibition of bacterial growth incubated for 18 to 24 hrs by broth microdilution method; assay type: functional; conditions: time 18-24 hrs
Staphylococcus aureus [17] = experiment: In vivo antibacterial activity against methicillin-resistant Staphylococcus aureus clinical isolate 15-1 infected in Kunming mouse assessed as protection from systemic infection up to 50 mg/kg, po administered twice after bacterial infection; assay type: functional, organism-based; conditions: dose mg/kg <=50
Enterococcus faecium [18] = experiment: Antibacterial activity against Enterococcus faecium clinical isolate 15-1 assessed as inhibition of bacterial growth incubated for 18 to 24 hrs by broth microdilution method; assay type: functional; conditions: time 18-24 hrs
Staphylococcus aureus [19] = experiment: Potency index, ratio of vancomycin MIC to test compound MIC for antibacterial activity against methicillin-resistant Staphylococcus aureus clinical isolate 15-2 assessed as inhibition of bacterial growth incubated for 18 to 24 hrs by broth microdilution method; assay type: functional; conditions: time 18-24 hrs
[20] = Metabolic stability in mouse liver microsomes assessed as half life preincubated for 5 mins followed by NADPH addition and measured up to 60 mins by LC-MS/MS analysis; assay type: ADME, Microsome; conditions: time 65 min
[21] = system: Staphylococcus epidermidis; experiment: Antibacterial activity against methicillin-resistant Staphylococcus epidermidis clinical isolate 15-2 assessed as inhibition of bacterial growth incubated for 18 to 24 hrs by broth microdilution method; assay type: functional; conditions: time 18-24 hrs
[22] = Metabolic stability in mouse liver microsomes assessed as intrinsic clearance preincubated for 5 mins followed by NADPH addition and measured up to 60 mins by LC-MS/MS analysis; assay type: ADME, Microsome; conditions: time 65 min, read-out: CLH
Enterococcus faecalis = experiment: Potency index, ratio of vancomycin MIC to test compound MIC for antibacterial activity against Enterococcus faecalis clinical isolate 15-1 assessed as inhibition of bacterial growth incubated for 18 to 24 hrs by broth microdilution method; assay type: functional; conditions: time 18-24 hrs
Staphylococcus aureus [23] = experiment: Antibacterial activity against methicillin-resistant Staphylococcus aureus clinical isolate 15-3 assessed as inhibition of bacterial growth incubated for 18 to 24 hrs by broth microdilution method; assay type: functional; conditions: time 18-24 hrs
Staphylococcus aureus [24] = experiment: In vivo antibacterial activity against methicillin resistant Staphylococcus aureus clinical isolate 15-1 infected in kunming mouse assessed as animal survival rate at 0.33 mg/kg, po administered 6 hrs prior to bacterial infection and at 0 and 6 hrs post infection and measured for 7 days (reference value: 12.5 %); assay type: functional; conditions: 15-1, po, 168 h, time 7 day
Staphylococcus aureus [25] = experiment: In vivo antibacterial activity against methicillin resistant Staphylococcus aureus clinical isolate 15-1 infected in kunming mouse assessed as animal survival rate at 1 mg/kg, po administered 6 hrs prior to bacterial infection and at 0 and 6 hrs post infection and measured for 7 days (reference value: 12.5 %); assay type: functional; conditions: 15-1, po, 168 h, time 7 day

## CCn1c(=O)c(C(=O)Nc2nnc(-c3nccs3)s2)c(O)c2ccccc21
[1]
  MIC: 0.5 µg/mL (≈ 1.25 µM)
Staphylococcus aureus [2]
  survival at 3 mg/kg: 50%
[3]
  MIC: 0.5 µg/mL (≈ 1.25 µM)
Enterococcus faecium [4]
  Ratio: 2
Staphylococcus aureus [5]
  Ratio: 2
[6]
  MIC: 0.5 µg/mL (≈ 1.25 µM)
Staphylococcus aureus [7]
  Activity: >3 log10CFU/ml
[8]
  IC50: 0.15 µM
Staphylococcus aureus [9]
  MIC: 0.5 µg/mL (≈ 1.25 µM)
[10]
  MRT last at 72 h: 2.7 h
Staphylococcus aureus [11]
  MIC: 0.5 µg/mL (≈ 1.25 µM)
[12]
  half-life: 8.39 h
[13]
  half-life: 2.3 h
[14]
  Ratio: 2
[15]
  AUC(0-t) at 72 h: 2540 ng·h/mL
HepG2
  IC50: 55.3 µM
Staphylococcus aureus [16]
  MIC: 0.5 µg/mL (≈ 1.25 µM)
Staphylococcus aureus [17]
  Activity: inactive
Enterococcus faecium [18]
  MIC: 1 µg/mL (≈ 2.5 µM)
Staphylococcus aureus [19]
  Ratio: 2
[20]
  half-life: 0.593 h
[21]
  MIC: 0.5 µg/mL (≈ 1.25 µM)
[22]
  microsomal CLint: 38.9 µL/min/mg
Enterococcus faecalis
  Ratio: 2
Staphylococcus aureus [23]
  MIC: 0.5 µg/mL (≈ 1.25 µM)
Staphylococcus aureus [24]
  survival at 0.33 mg/kg: 25%
Staphylococcus aureus [25]
  survival at 1 mg/kg: 37.5%
